Laboratory results: ChEMBL document CHEMBL1201862, “PubChem BioAssay data set” (2004)
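Protocol summary: plate cells (96-well), add compound at 5 concentrations, incubate 48 h, interpolate endpoints linearly. At the GI50, growth is halved.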 The source made the active and inactive calls. Rule as the data show it: active = GI50 up to about 1.1 µM and inactive = higher.

What was measured:
Assay in all cases: NCI anticancer screen, dose series, 48 h
786-0 = system: 786-0
A498 = system: A498
A549 = system: A549
ACHN = system: ACHN
BT-549 = system: BT-549
CAKI-1 = system: CAKI-1
CCRF-CEM = system: CCRF-CEM
COLO 205 = system: COLO 205
DU-145 = system: DU-145
EKVX = system: EKVX
HCC 2998 = system: HCC 2998
HCT-116 = system: HCT-116
HCT-15 = system: HCT-15
HL-60 = system: HL-60
HOP-62 = system: HOP-62
HOP-92 = system: HOP-92
HT-29 = system: HT-29
Hs-578T = system: Hs-578T
IGROV-1 = system: IGROV-1
K562 = system: K562
KM12 = system: KM12
LOX IMVI = system: LOX IMVI
M14 = system: M14
MCF7 = system: MCF7
MDA-MB-231 = system: MDA-MB-231
MDA-MB-435 = system: MDA-MB-435
MDA-N = system: MDA-N
MOLT-4 = system: MOLT-4
Malme-3M = system: Malme-3M
NCI-H226 = system: NCI-H226
NCI-H23 = system: NCI-H23
NCI-H460 = system: NCI-H460
NCI-H522 = system: NCI-H522
NCI/ADR-RES = system: NCI/ADR-RES
OVCAR-3 = system: OVCAR-3
OVCAR-4 = system: OVCAR-4
OVCAR-5 = system: OVCAR-5
OVCAR-8 = system: OVCAR-8
PC-3 = system: PC-3
RPMI-8226 = system: RPMI-8226
RXF 393 = system: RXF 393
SF-268 = system: SF-268
SF-295 = system: SF-295
SF-539 = system: SF-539
SK-MEL-28 = system: SK-MEL-28
SK-MEL-2 = system: SK-MEL-2
SK-MEL-5 = system: SK-MEL-5
SK-OV-3 = system: SK-OV-3
SN12C = system: SN12C
SNB-19 = system: SNB-19
SNB-75 = system: SNB-75
SW-620 = system: SW-620
T47D = system: T47D
TK-10 = system: TK-10
U-251 = system: U-251
UACC-257 = system: UACC-257
UACC-62 = system: UACC-62
UO-31 = system: UO-31
SR = system: SR

In the case of N#Cc1nc(C#N)n(C(=O)c2ccccc2)c1NC(=O)c1ccccc1, the GI50 (786-0) is reported as > 100 µM (inactive), the GI50 (A498) is reported as > 100 µM (inactive) and the GI50 (A549) is reported as > 100 µM (inactive). The GI50 (ACHN) was > 100 µM (inactive), the GI50 (BT-549) was > 100 µM (inactive) and the GI50 (CAKI-1) was > 100 µM (inactive). The GI50 (CCRF-CEM) was > 100 µM (inactive), the GI50 (COLO 205) was > 100 µM (inactive) and the GI50 (DU-145) was > 100 µM (inactive). For the same compound, the GI50 (EKVX) was > 100 µM (inactive), the GI50 (HCC 2998) was > 100 µM (inactive) and the GI50 (HCT-116) was > 100 µM (inactive). For the same compound, the GI50 (HCT-15) was greater than 100 µM, the GI50 (HL-60) was > 100 µM (inactive) and the GI50 (HOP-62) was > 100 µM (inactive). For the same compound, the GI50 (HOP-92) was > 100 µM (inactive), the GI50 (HT-29) was > 100 µM (inactive) and the GI50 (Hs-578T) was > 100 µM (inactive). The GI50 (IGROV-1) was > 100 µM (inactive), the GI50 (K562) was > 100 µM (inactive) and the GI50 (KM12) was > 100 µM (inactive). For the same compound, the GI50 (LOX IMVI) was > 100 µM (inactive), the GI50 (M14) was > 100 µM (inactive) and the GI50 (MCF7) was > 100 µM (inactive). The GI50 (MDA-MB-231) was > 100 µM (inactive), the GI50 (MDA-MB-435) was > 100 µM (inactive) and the GI50 (MDA-N) was > 100 µM (inactive). The GI50 (MOLT-4) was > 100 µM (inactive), the GI50 (Malme-3M) was > 100 µM (inactive) and the GI50 (NCI-H226) was > 100 µM (inactive). For the same compound, the GI50 (NCI-H23) was > 100 µM (inactive), the GI50 (NCI-H460) was > 100 µM (inactive) and the GI50 (NCI-H522) was > 100 µM (inactive). For the same compound, the GI50 (NCI/ADR-RES) was > 100 µM (inactive), the GI50 (OVCAR-3) was > 100 µM (inactive) and the GI50 (OVCAR-4) was > 100 µM (inactive). For the same compound, the GI50 (OVCAR-5) was > 100 µM (inactive), the GI50 (OVCAR-8) was > 100 µM (inactive) and the GI50 (PC-3) was > 100 µM (inactive). For the same compound, the GI50 (RPMI-8226) was > 100 µM (inactive), the GI50 (RXF 393) was > 100 µM (inactive) and the GI50 (SF-268) was > 100 µM (inactive). The GI50 (SF-295) was > 100 µM (inactive), the GI50 (SF-539) was > 100 µM (inactive) and the GI50 (SK-MEL-28) was > 100 µM (inactive). For the same compound, the GI50 (SK-MEL-2) was > 100 µM (inactive), the GI50 (SK-MEL-5) was > 100 µM (inactive) and the GI50 (SK-OV-3) was > 100 µM (inactive). The GI50 (SN12C) was > 100 µM (inactive), the GI50 (SNB-19) was > 100 µM (inactive) and the GI50 (SNB-75) was > 100 µM (inactive). For the same compound, the GI50 (SW-620) was > 100 µM (inactive), the GI50 (T47D) was > 100 µM (inactive) and the GI50 (TK-10) was > 100 µM (inactive). The GI50 (U-251) was > 100 µM (inactive), the GI50 (UACC-257) was > 100 µM (inactive) and the GI50 (UACC-62) was > 100 µM (inactive). For the same compound, the GI50 (UO-31) was > 100 µM (inactive).

With COc1ccc(C)cc1N1C(=O)C2ON(Cc3ccc(CC(N)=O)cc3)C(c3c4ccccc4c(Cl)c4ccccc34)C2C1=O (stereo not drawn) the GI50 (786-0) was 21.4 µM (inactive), the GI50 (A549) was 55.2 µM (inactive) and the GI50 (ACHN) was 25.4 µM (inactive). For the same compound, the GI50 (BT-549) was 24.1 µM (inactive), the GI50 (CAKI-1) was 25.8 µM (inactive) and the GI50 (CCRF-CEM) was 21.5 µM (inactive). For the same compound, the GI50 (DU-145) was 22.6 µM (inactive), the GI50 (EKVX) was 28.2 µM (inactive) and the GI50 (HCT-116) was 15.1 µM (inactive). The GI50 (HCT-15) was 22.4 µM, the GI50 (HL-60) was 27.6 µM (inactive) and the GI50 (HOP-62) was 27.7 µM (inactive). For the same compound, the GI50 (HOP-92) was 32.6 µM (inactive), the GI50 (HT-29) was 20.3 µM (inactive) and the GI50 (Hs-578T) was 41.9 µM (inactive). The GI50 (IGROV-1) was 33.2 µM (inactive), the GI50 (K562) was 28.8 µM (inactive) and the GI50 (KM12) was 14 µM (inactive). For the same compound, the GI50 (LOX IMVI) was 22.8 µM (inactive), the GI50 (M14) was 19.3 µM (inactive) and the GI50 (MCF7) was 26.4 µM (inactive). For the same compound, the GI50 (MDA-MB-231) was 19.9 µM (inactive), the GI50 (MDA-MB-435) was 21.9 µM (inactive) and the GI50 (MDA-N) was 14.6 µM (inactive). The GI50 (MOLT-4) was 24.9 µM (inactive), the GI50 (Malme-3M) was 31.1 µM (inactive) and the GI50 (NCI-H23) was 29.3 µM (inactive). The GI50 (NCI-H460) was 18.4 µM (inactive), the GI50 (NCI-H522) was 32.1 µM (inactive) and the GI50 (NCI/ADR-RES) was 26.1 µM (inactive). The GI50 (OVCAR-3) was 28.4 µM (inactive), the GI50 (OVCAR-4) was 24.3 µM (inactive) and the GI50 (OVCAR-5) was 23.6 µM (inactive). For the same compound, the GI50 (OVCAR-8) was 27.6 µM (inactive), the GI50 (PC-3) was 28.1 µM (inactive) and the GI50 (RXF 393) was 13.3 µM (inactive). For the same compound, the GI50 (SF-268) was 26.5 µM (inactive), the GI50 (SF-295) was 22.9 µM (inactive) and the GI50 (SK-MEL-28) was 44.1 µM (inactive). For the same compound, the GI50 (SK-MEL-2) was 21.1 µM (inactive), the GI50 (SK-OV-3) was 31.8 µM (inactive) and the GI50 (SN12C) was 20.2 µM (inactive). The GI50 (SNB-19) was 32.1 µM (inactive), the GI50 (SNB-75) was 12.4 µM (inactive) and the GI50 (SR) was 12.8 µM (inactive). The GI50 (SW-620) was 28.4 µM (inactive), the GI50 (T47D) was 27.4 µM (inactive) and the GI50 (TK-10) was 23.1 µM (inactive). For the same compound, the GI50 (U-251) was 24.3 µM (inactive), the GI50 (UACC-257) was 15 µM (inactive) and the GI50 (UACC-62) was 19.7 µM (inactive). For the same compound, the GI50 (UO-31) was 25.7 µM (inactive).

With CC(O)CN1c2ccccc2Sc2ccc(Cl)cc21 (stereo not drawn) the GI50 (786-0) was > 10 µM (inactive), the GI50 (A498) was > 10 µM (inactive) and the GI50 (A549) was > 10 µM (inactive). For the same compound, the GI50 (ACHN) was > 10 µM (inactive), the GI50 (BT-549) was > 10 µM (inactive) and the GI50 (CAKI-1) was > 10 µM (inactive). For the same compound, the GI50 (CCRF-CEM) was > 10 µM (inactive), the GI50 (COLO 205) was > 10 µM (inactive) and the GI50 (DU-145) was > 10 µM (inactive). The GI50 (EKVX) was > 10 µM (inactive), the GI50 (HCC 2998) was > 10 µM (inactive) and the GI50 (HCT-116) was > 10 µM (inactive). The GI50 (HCT-15) was greater than 10 µM, the GI50 (HL-60) was > 10 µM (inactive) and the GI50 (HOP-62) was > 10 µM (inactive). The GI50 (HOP-92) was > 10 µM (inactive), the GI50 (HT-29) was > 10 µM (inactive) and the GI50 (Hs-578T) was > 10 µM (inactive). The GI50 (IGROV-1) was > 10 µM (inactive), the GI50 (K562) was > 10 µM (inactive) and the GI50 (KM12) was > 10 µM (inactive). For the same compound, the GI50 (LOX IMVI) was > 10 µM (inactive), the GI50 (M14) was > 10 µM (inactive) and the GI50 (MCF7) was > 10 µM (inactive). For the same compound, the GI50 (MDA-MB-231) was > 10 µM (inactive), the GI50 (MDA-MB-435) was > 10 µM (inactive) and the GI50 (MDA-N) was > 10 µM (inactive). For the same compound, the GI50 (MOLT-4) was > 10 µM (inactive), the GI50 (Malme-3M) was > 10 µM (inactive) and the GI50 (NCI-H226) was > 10 µM (inactive). For the same compound, the GI50 (NCI-H23) was > 10 µM (inactive), the GI50 (NCI-H460) was > 10 µM (inactive) and the GI50 (NCI-H522) was > 10 µM (inactive). For the same compound, the GI50 (NCI/ADR-RES) was > 10 µM (inactive), the GI50 (OVCAR-3) was > 10 µM (inactive) and the GI50 (OVCAR-4) was > 10 µM (inactive). For the same compound, the GI50 (OVCAR-5) was > 10 µM (inactive), the GI50 (OVCAR-8) was > 10 µM (inactive) and the GI50 (PC-3) was > 10 µM (inactive). The GI50 (RPMI-8226) was > 10 µM (inactive), the GI50 (RXF 393) was > 10 µM (inactive) and the GI50 (SF-268) was > 10 µM (inactive). The GI50 (SF-295) was > 10 µM (inactive), the GI50 (SF-539) was > 10 µM (inactive) and the GI50 (SK-MEL-28) was > 10 µM (inactive). The GI50 (SK-MEL-2) was > 10 µM (inactive), the GI50 (SK-MEL-5) was > 10 µM (inactive) and the GI50 (SK-OV-3) was > 10 µM (inactive). For the same compound, the GI50 (SN12C) was > 10 µM (inactive), the GI50 (SNB-19) was > 10 µM (inactive) and the GI50 (SNB-75) was > 10 µM (inactive). For the same compound, the GI50 (SW-620) was > 10 µM (inactive), the GI50 (T47D) was > 10 µM (inactive) and the GI50 (TK-10) was > 10 µM (inactive). The GI50 (U-251) was > 10 µM (inactive), the GI50 (UACC-257) was > 10 µM (inactive) and the GI50 (UACC-62) was > 10 µM (inactive). The GI50 (UO-31) was > 10 µM (inactive).
